In data set [1] the target is Cytochrome P450 3A4 (Homo sapiens, UniProt P08684). The data set is described as follows: Inhibition of CYP3A4 after 30 mins. The class given is ADME.
A short description of data set [2]: Inhibition of gamma-secretase-mediated amyloid beta-40 production.
Data set [3] is described as follows: AUC (0 to 6 hrs) in rat at 10 mg/kg, po. Format: ADME, organism-based. Conditions: plasma. Also noted: time < 6 hr, dose 10 mg/kg, route oral.

pIC50: −log10 of the molar value.

Sequence of Cytochrome P450 3A4 (P08684 whole entry): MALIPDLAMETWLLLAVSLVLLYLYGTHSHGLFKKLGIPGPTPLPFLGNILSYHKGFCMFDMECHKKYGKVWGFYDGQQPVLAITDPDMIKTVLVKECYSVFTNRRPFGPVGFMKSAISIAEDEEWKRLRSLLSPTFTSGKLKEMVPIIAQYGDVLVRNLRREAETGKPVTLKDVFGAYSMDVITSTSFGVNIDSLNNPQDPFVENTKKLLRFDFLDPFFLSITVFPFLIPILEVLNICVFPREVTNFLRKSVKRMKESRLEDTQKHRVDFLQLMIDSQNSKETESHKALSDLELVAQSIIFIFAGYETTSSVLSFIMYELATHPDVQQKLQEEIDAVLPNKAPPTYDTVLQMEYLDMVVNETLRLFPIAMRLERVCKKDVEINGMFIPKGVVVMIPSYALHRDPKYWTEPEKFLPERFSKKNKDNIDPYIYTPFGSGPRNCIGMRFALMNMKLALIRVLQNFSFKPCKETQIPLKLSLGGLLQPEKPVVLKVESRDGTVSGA

For orientation: pIC50 means the negative decadic logarithm of the IC50, by convention in mol/L. Read a low pIC50 as a large IC50. For `CC1([C@@H]2COC[C@H](COC(=O)N3CCC(CO)CC3)N2S(=O)(=O)c2ccc(Cl)cc2)CC1`, the pIC50 in data set [1] was 5.26; in data set [2] it was 6.88.
One may read the AUC(0-t) as exposure summed from dosing to a finite time, without extrapolation to infinity. Lower therefore signals less exposure. As to `CN1CCC12CCN(C(=O)OC1([C@H]3COC[C@@H](CC4CC4)N3S(=O)(=O)c3ccc(Cl)cc3)CC1)CC2`, the figures for the pIC50 in data set [1] and in data set [2] were 4.52 and 8.59, respectively. In data set [3], this compound yielded an AUC(0-t) at 6 h of 0.894 µM·h.
Taken in the same sequence, the figures for `CN1CCN(C(=O)OC2([C@H]3COC[C@@H](CC4CC4)N3S(=O)(=O)c3ccc(Cl)cc3)CC2)CC1=O` were 5.85, 8.24 and 1.02 µM·h.
Taken in the same sequence, the figures for `CC(C)[C@@H]1COC[C@H](C2(OC(=O)N3CC4CNCC4C3)CC2)N1S(=O)(=O)c1ccc(Cl)cc1` (stereo partly specified) were 5.19, 8.03 and 1.12 µM·h.
Taken in the same sequence, the figures for `CCNC(=O)N1C2CCC1CN(C(=O)OC1([C@H]3COC[C@@H](CC4CC4)N3S(=O)(=O)c3ccc(Cl)cc3)CC1)C2` were < 4.52, 8.26 and 0.06 µM·h.
As for `CC(C)(C)[C@@H]1COC[C@H](COC(=O)N2CCN(C(C)(C)CO)CC2)N1S(=O)(=O)c1ccc(Cl)cc1`, the figures for the negative logarithm of the IC50 (pIC50) in data set [1] and in data set [2] were 4.62 and 7.46, respectively.
For `CC(C)[C@@H]1COC[C@H](C2(OC(=O)N3CCNCC3)CC2)N1S(=O)(=O)c1ccc(Cl)cc1`, the pIC50 is 6.52 in data set [1] and 7.84 in data set [2]. The AUC(0-t) at 6 h in data set [3] worked out at 3.93 µM·h.
Turning to `CC1([C@@H]2COC[C@H](COC(=O)N3CCC(N4CCCCC4)CC3)N2S(=O)(=O)c2ccc(Cl)cc2)CC1`, the pIC50 in data set [1] was 5.82; in data set [2], 7.69.
On the same counts, the results for `CC(C)[C@@H]1COC[C@H](C2(OC(=O)N3CCC(CO)CC3)CC2)N1S(=O)(=O)c1ccc(Cl)cc1` are 4.86 and 8.19.
`C[C@@H]1CN(C(=O)OC2([C@H]3COC[C@@H](CC4CC4)N3S(=O)(=O)c3ccc(Cl)cc3)CC2)C[C@H](C)N1CCO`: the pIC50 was 5.70 in data set [1] and 7.94 in data set [2]. The compound also had an AUC(0-t) at 6 h in data set [3] of 1.23 µM·h.
As for `CC(C)[C@@H]1COC[C@H](C2(OC(=O)N3CC[C@H](O)C3)CC2)N1S(=O)(=O)c1ccc(Cl)cc1`, the pIC50 was 4.52 in data set [1] and 7.77 in data set [2].
Taken in the same sequence, the figures for `CC1([C@@H]2COC[C@H](COC(=O)N3CCN(C(C)(C)CO)CC3)N2S(=O)(=O)c2ccc(Cl)cc2)CC1` were 6.30 and 7.41.
With `CC(C)[C@@H]1COC[C@H](C2(OC(=O)N3CC[C@@H](O)C3)CC2)N1S(=O)(=O)c1ccc(Cl)cc1`, the pIC50 was 4.87 in data set [1] and 7.72 in data set [2]. The AUC(0-t) at 6 h in data set [3] came to 0.036 µM·h.
Turning to `CC[C@H]1CN(C(C)=O)[C@H](C)CN1C(=O)OC1([C@H]2COC[C@@H](CC3CC3)N2S(=O)(=O)c2ccc(Cl)cc2)CC1`, the pIC50 was < 4.52 in data set [1] and 7.53 in data set [2].
For `CC(C)(CO)N1CCN(C(=O)OC2([C@H]3COC[C@@H](CC4CC4)N3S(=O)(=O)c3ccc(Cl)cc3)CC2)CC1`, the pIC50 is < 4.52 in data set [1] and 7.56 in data set [2]. The compound further registered an AUC(0-t) at 6 h in data set [3] of 0.077 µM·h.
Taken in the same sequence, the figures for `O=C1CC2(CCN(C(=O)OC3([C@H]4COC[C@@H](CC5CC5)N4S(=O)(=O)c4ccc(Cl)cc4)CC3)CC2)N1` were < 4.52, 8.13 and 0.037 µM·h.
Taken in the same sequence, the figures for `O=C(OC1([C@H]2COC[C@@H](CC3CC3)N2S(=O)(=O)c2ccc(Cl)cc2)CC1)N1CCC2(CCN2)CC1` were 4.95, 8.51 and 1.34 µM·h.
On the same counts, the results for `CC(=O)N1C2CCC1CN(C(=O)OC1([C@H]3COC[C@@H](CC4CC4)N3S(=O)(=O)c3ccc(Cl)cc3)CC1)C2` are < 4.52, 8.36 and 0.013 µM·h.
On to `O=C(OC1([C@H]2COC[C@@H](CC3CC3)N2S(=O)(=O)c2ccc(Cl)cc2)CC1)N1CC2CC1CN2CCO` (stereo partly specified), for which the pIC50 was 5.49 in data set [1] and 8.44 in data set [2]. The compound further registered an exposure AUC(0-t) at 6 h in data set [3] of 1.35 µM·h.
On the same counts, the results for `O=C(OC1([C@H]2COC[C@@H](CC3CC3)N2S(=O)(=O)c2ccc(Cl)cc2)CC1)N1CC2CCC(C1)N2` are 6.10, 9.10 and 4.58 µM·h.
On the same counts, the results for `CC(C)[C@@H]1COC[C@H](C2(OC(=O)N3CC4CCC(C3)N4)CC2)N1S(=O)(=O)c1ccc(Cl)cc1` are 6.30, 8.70 and 4.97 µM·h.
Regarding `CC(C)(C)[C@@H]1COC[C@H](COC(=O)N2CCC(CO)CC2)N1S(=O)(=O)c1ccc(Cl)cc1`, the pIC50 in data set [1] was 5.15; in data set [2] it was 6.97.
Regarding `O=C(OC1([C@H]2COC[C@@H](CC3CC3)N2S(=O)(=O)c2ccc(Cl)cc2)CC1)N1CC2CCC(C1)N2CCO`, the pIC50 in data set [1] was 5.64; in data set [2], 9.05. This compound showed an AUC(0-t) at 6 h in data set [3] of 1.28 µM·h.

The record behind these values is ChEMBL document CHEMBL1268982, “Design, synthesis, and structure-activity relationship studies of N-arylsulfonyl morpholines as γ-secretase inhibitors” (Bioorg Med Chem Lett, 2010).
